Experimental data published in publication PMC9322052, “Synthesis and Biological Activity Screening of Newly Synthesized Trimethoxyphenyl-Based Analogues as Potential Anticancer Agents” (Molecules, 2022).
Where two headings read alike, the source gives them in different places.

Experiments:
HCT-116 cell line = test system: HCT-116 cell line; parameters: method as in doi:10.1016/j.arabjc.2021.103644; conditions: read-out: IC50, antiproliferative activity; cited from earlier work
EC-109 cell line = test system: EC-109 cell line; parameters: method as in doi:10.1016/j.arabjc.2021.103644; conditions: read-out: IC50, antiproliferative activity; cited from earlier work
PC-3 cell line = test system: PC-3 cell line; parameters: method as in doi:10.1016/j.arabjc.2021.103644; conditions: read-out: IC50, antiproliferative activity; cited from earlier work
MGC-803 cell line = test system: MGC-803 cell line; parameters: method as in doi:10.1016/j.arabjc.2021.103644; conditions: read-out: IC50, antiproliferative activity; cited from earlier work
A-594 cell line = test system: A-594 cell line; parameters: method as in doi:10.1016/j.arabjc.2021.103644; conditions: read-out: IC50, antiproliferative activity; cited from earlier work
[1] = test system: normal liver cell line HL-7702; experiment: MTT cytotoxicity assay, normal liver cells; type: cell-based; conditions: Homo sapiens, L02, 24 h treatment, mean ± SE
Protocol: (§1) All the newly synthesized analogs were evaluated for their in vitro cytotoxicity against the hepatocellular carcinoma HepG2 cell line. Podo was utilized as a reference control in the current study. […] The N-phenyl triazinone derivative 9 was further investigated for its cytotoxic effects against normal liver cell line HL-7702.
(§2) MTT colorimetric assay was carried out to investigate the impact of the newly synthesized compounds 2–11 on hepatocellular carcinoma (HepG2) and normal liver cell line (HL-7702) cell lines. See Section 3.3.1 in Supplementary Material.
(§3) 3.3.1. Cytotoxic activity evaluation
To measure the cytotoxic activity of the synthesized derivatives 2a-11 in hepatocel-lular carcinoma (HepG2) cell line (ATCC Cat No. HB-8065) as well as normal human liver cell line HL-7702 (ATCC Cat. No. 77402), cell viability assay was assessed using MTT assay method. Cells at density of 1 x 104 were seeded in a 96-well plate at 37 °C for 24 h under 5% CO2. […] The color inten-sity of the formazan product, which represents the growth condition of the cells, is quan-tified by using an ELISA plate reader (EXL 800, USA) at 570 nm absorbance. […]
(§4) Compounds 9, 10 and 11 were evaluated for their tubulin inhibitory activity levels according to the manufacturer’s instructions using # abcam Human Beta-tubulin simplestep […]
3.3.5. […] The samples were immediately analyzed using cell […]

β-tubulin = experiment: Tubulin polymerization inhibition (beta-tubulin ELISA in HepG2 cells); type: cell-based, human
Protocol: The selected candidates were tested at a concentration equal to their IC50 concentration dose value. […] See Section 3.3.2 in Supplementary Material. […] page 18: 3.3. Biological studies 3.3.1. Cytotoxic activity evaluation To measure the cytotoxic activity of the synthesized derivatives 2a-11 in hepatocel- lular carcinoma (HepG2) cell line (ATCC Cat No. HB-8065) as well as normal human liver cell line HL-7702 (ATCC Cat. No. 77402), cell viability assay was assessed using MTT assay method. Cells at density of 1 x 104 were seeded in a 96-well plate at 37 °C for 24 h under 5% CO2. After incubation, the cells were treated with different concentrations of the test compounds 2a-11 and incubated for 24 h, then 20 μl of MTT solution at 5 mg/mL was […] Dimethyl sulphoxide (DMSO) in volume of 100 μl was added to each well to dissolve the purple formazan that had formed. The color […] of the formazan product, which represents the growth condition of the cells, is quan- […] by using an ELISA plate reader (EXL 800, USA) at 570 nm absorbance. The experi- mental conditions were carried out with at least three replicates, and the experiments were repeated at least three times. 3.3.2. Tubulin inhibitions Assay […] according to the manufacturer's instructions using # abcam Human Beta-tubulin […] ELISA Kit ab245722. 3.3.3. Cell cycle analysis of compound 9 Cell cycle analysis in HepG2 cells was investigated using fluorescent Annexin V- FITC/ PI detection kit (BioVision EZCellTM Cell Cycle Analysis Kit Catalog #K920) by flow cytometry assay. […] twice in PBS. After that, the cells were incubated at 37 °C and 5% CO2. […] Apoptosis assay for compound 9 Apoptosis in HepG2 cells was investigated using fluorescent Annexin V-FITC/ PI de- tection kit (BioVision Annexin V-FITC Apoptosis Detection Kit, Catalog #: K101) by flow cy- tometry assay. […] The samples were immediately analyzed using FACS Calibur flow cytometer (Becton and Dickinson, Heidelberg, Germany). 3.3.5. Measurement of mitochondrial membrane potential (MMP) for compound 9 MMP was measured by FACS analysis using abcam ab113852TMRE Mitochondrial Membrane Potential Assay Kit with DiOC2(3) staining using MitoProbeTM DiOC2(3) Assay Kit for Flow Cytometry (M34150). After treatment with compound 9 at its IC50 concentra- tion, cells were stained with DiOC2(3) dye for 30 min in the incubator, then harvested and washed with PBS. […] The samples were immediately analyzed using cell Quest software. […] Effect on p53, Bax and Bcl-2 p53, Bax and Bcl2 enzyme activities in HepG2 cells were detected in the presence of com- pound 9 at its IC50 concentration (μM). The levels of the tumor suppressor gene p53, apoptotic markers Bax as well as the anti-apoptotic marker Bcl-2 were assessed using p53 ELISA kit, Human Bax ELISA kit and Bcl-2 Elisa kit. […]

[2] = test system: hepatocellular carcinoma HepG2 cell line; experiment: MTT cytotoxicity assay, HepG2; type: cell-based, human; conditions: mean ± SE
Protocol: as §1, §2, §3
To measure the cytotoxic activity of the synthesized derivatives 2a-11 in hepatocel-lular carcinoma (HepG2) cell line (ATCC Cat No. HB-8065) as well as normal human liver cell line HL-7702 (ATCC Cat. No. 77402), cell viability assay was assessed using MTT assay method. Cells at density of 1 x 104 were seeded in a 96-well plate at 37 °C for 24 h under 5% CO2. After incubation, the cells were treated with different concentrations of the test compounds 2a-11 and incubated for 24 h, then 20 μl of MTT solution at 5 mg/mL was applied and incubated for 4 h at 37 °C. Dimethyl sulphoxide (DMSO) in volume of 100 µl was added to each well to dissolve the purple formazan that had formed. The color inten-sity of the formazan product, which represents the growth condition of the cells, is quan-tified by using an ELISA plate reader (EXL 800, USA) at 570 nm absorbance. The experi-mental conditions were carried out with at least three replicates, and the experiments were repeated at least three times.
3.3.2. Tubulin inhibitions Assay
as §4
3.3.3. Cell cycle analysis of compound 9
Cell cycle analysis in HepG2 cells was investigated using fluorescent Annexin V-FITC/ PI detection kit (BioVision EZCellTM Cell Cycle Analysis Kit Catalog #K920) by flow cytometry assay. HepG2 cells at a density of 2 × 10^5 per well were harvested and washed twice in PBS. After that, the cells were incubated at 37 °C and 5% CO2. […] Afterward, medium was stained with DNA flu-orochrome PI for 15 min at 37 °C. The samples were immediately analyzed using Facs Calibur flow cytometer (Becton and Dickinson, Heidelberg, Germany).
3.3.4. Apoptosis assay for compound 9
Apoptosis in HepG2 cells was investigated using fluorescent Annexin V-FITC/ PI de-tection kit (BioVision Annexin V-FITC Apoptosis Detection Kit, Catalog #: K101) by flow cy-tometry assay. HepG2 cells at a density of 2 × 10^5 per well were treated with compound 9 at its IC50 (μM) for 48 h, then the cells were harvested and stained with Annexin V-FITC/ PI dye for 15 min in the dark at 37 °C. The samples were immediately analyzed using FACS Calibur flow cytometer (Becton and Dickinson, Heidelberg, Germany).
3.3.5. Measurement of mitochondrial membrane potential (MMP) for compound 9 MMP was measured by FACS analysis using abcam ab113852TMRE Mitochondrial Membrane Potential Assay Kit with DiOC2(3) staining using MitoProbe™ DiOC2(3) Assay Kit for Flow Cytometry (M34150). After treatment with compound 9 at its IC50 concentra-tion, cells were stained with DiOC2(3) dye for 30 min in the incubator, then harvested and washed with PBS. DiOC2(3)-stained cells were represented with Annexin binding buffer and incubated at 37 °C for 15 min. The samples were immediately analyzed using cell […]
3.3.6. Effect on p53, Bax and Bcl-2 p53, Bax and Bcl2 enzyme activities in HepG2 cells were detected in the presence of com-pound 9 at its IC50 concentration (μM). The levels of the tumor suppressor gene p53, apoptotic markers Bax as well as the anti-apoptotic marker Bcl-2 were assessed using p53 ELISA kit, Human Bax ELISA kit and Bcl-2 Elisa kit. […]

eight cancer cell lines = test system: eight cancer cell lines; parameters: method as in PMID 23547728; conditions: read-out: average IC50 over eight cancer cell lines; cited from earlier work
[3] = HepG2 cells, each compound at its IC50 concentration (9 1.38, 10 2.52, 11 3.21, podo 2.08 μM), ELISA
[4] = Homo sapiens, HepG2, 24 h, 24 h treatment

## COc1cc(Nc2nc(Cc3ccc(C(=O)/C=C/c4ccccn4)cc3)nnc2Cl)cc(OC)c1OC [V]
HCT-116 cell line
  IC50: 430 nM
EC-109 cell line
  IC50: 780 nM
PC-3 cell line
  IC50: 610 nM
MGC-803 cell line
  IC50: 410 nM
A-594 cell line
  IC50: 520 nM

## COc1cc([C@@H]2c3cc4c(cc3[C@H](O)[C@H]3COC(=O)[C@H]23)OCO4)cc(OC)c1OC [podo, podophyllotoxin, reference compound]
[1]
  IC50: 18.6 ± 0.58 µM
β-tubulin
  β-tubulin polymerization inhibition percentage: 91.32%
[2]; Homo sapiens, HepG2, 24 h treatment
  IC50: 2.08 ± 0.04 µM

## COc1cc(C(=O)c2nc(-c3ccccc3)c[nH]2)cc(OC)c1OC [RABI-112]
Eight cancer cell lines
  IC50: 14 nM

## COc1ccc(C2=N/C(=C\c3cc(OC)c(OC)c(OC)c3)C(=O)NN2c2nc(-c3ccccc3)cs2)cc1OC [Compound 11, (Z)-3-(3,4-Dimethoxyphenyl)-2-(4-Phenylthiazol-2-yl)-5-(3,4,5-Trimethoxybenzylidene)-1,2-Dihydro-1,2,4-Triazin-6(5H)-one]
other
  melting point: 248 to 250 °C
β-tubulin; [3]
  β-tubulin polymerization inhibition percentage: 69.95%
[2]; [4]
  IC50: 3.21 ± 0.22 µM

## COc1ccc(C2=N/C(=C\c3cc(OC)c(OC)c(OC)c3)C(=O)NN2C(=O)c2ccncc2)cc1OC [Compound 10, (Z)-3-(3,4-Dimethoxyphenyl)-2-Isonicotinoyl-5-(3,4,5-Trimethoxybenzylidene)-1,2-Dihydro-1,2,4-Triazin-6(5H)-one]
other
  melting point: 248 to 250 °C
β-tubulin; [3]
  β-tubulin polymerization inhibition percentage: 80.51%
[2]; [4]
  IC50: 2.52 ± 0.24 µM

## COC(=O)/C(=C/c1cc(OC)c(OC)c(OC)c1)NC(=O)c1ccc(OC)c(OC)c1 [Compound 2a, (Z)-Methyl 2-(3,4-Dimethoxybenzamido)-3-(3,4,5-Trimethoxyphenyl)acrylate]
other
  melting point: 248 to 250 °C
[2]; 24 h treatment
  IC50: 14.4 ± 0.82 µM
[2]; [4]
  IC50: < 20 µM
